Measurements as given in ChEMBL document CHEMBL4507278 (2021).

Experiments:
[1] = system: Tyrosine-protein kinase ABL1 (Homo sapiens), P00519 [F317I]; details: Compound concentration 1000.0 nM
[2] = system: Tyrosine-protein kinase ABL1 (Homo sapiens), P00519 [F317I]; details: Compound concentration 1000.0 nM; remark: listed apart in the source
[3] = molecular target: Aurora kinase C (Homo sapiens) (UniProt Q9UQB9); details: Compound concentration 1000.0 nM
[4] = molecular target: Tyrosine-protein kinase receptor UFO (Homo sapiens) (UniProt P30530); details: Compound concentration 1000.0 nM
[5] = molecular target: BMP-2-inducible protein kinase (Homo sapiens) (UniProt Q9NSY1); details: Compound concentration 1000.0 nM
[6] = molecular target: Calcium/calmodulin-dependent protein kinase type II subunit delta (Homo sapiens) (UniProt Q13557); details: Compound concentration 1000.0 nM
[7] = molecular target: Cyclin-dependent kinase-like 3 (Homo sapiens) (UniProt Q8IVW4); details: Compound concentration 1000.0 nM
[8] = molecular target: Dual specificity protein kinase CLK1 (Homo sapiens) (UniProt P49759); details: Compound concentration 1000.0 nM
[9] = molecular target: Megakaryocyte-associated tyrosine-protein kinase (Homo sapiens) (UniProt P42679); details: Compound concentration 1000.0 nM
[10] = molecular target: Serine/threonine-protein kinase 17B (Homo sapiens) (UniProt O94768); details: Compound concentration 1000.0 nM
[11] = system: Epidermal growth factor receptor (Homo sapiens), P00533 [G719S]; details: Compound concentration 1000.0 nM
[12] = system: Epidermal growth factor receptor (Homo sapiens), P00533 [L861Q]; details: Compound concentration 1000.0 nM
[13] = molecular target: Mitogen-activated protein kinase 7 (Homo sapiens) (UniProt Q13164); details: Compound concentration 1000.0 nM
[14] = molecular target: Fibroblast growth factor receptor 1 (Homo sapiens) (UniProt P11362); details: Compound concentration 1000.0 nM
[15] = molecular target: Glycogen synthase kinase-3 alpha (Homo sapiens) (UniProt P49840); details: Compound concentration 1000.0 nM
[16] = molecular target: Homeodomain-interacting protein kinase 2 (Homo sapiens) (UniProt Q9H2X6); details: Compound concentration 1000.0 nM
[17] = system: Mast/stem cell growth factor receptor Kit (Homo sapiens), P10721 [L576P]; details: Compound concentration 1000.0 nM
[18] = system: Mast/stem cell growth factor receptor Kit (Homo sapiens), P10721 [V559D,V654A]; details: Compound concentration 1000.0 nM
[19] = molecular target: MAP kinase-activated protein kinase 5 (Homo sapiens) (UniProt Q8IW41); details: Compound concentration 1000.0 nM
[20] = molecular target: MAP/microtubule affinity-regulating kinase 4 (Homo sapiens) (UniProt Q96L34); details: Compound concentration 1000.0 nM
[21] = molecular target: Maternal embryonic leucine zipper kinase (Homo sapiens) (UniProt Q14680); details: Compound concentration 1000.0 nM
[22] = molecular target: Muscle, skeletal receptor tyrosine-protein kinase (Homo sapiens) (UniProt O15146); details: Compound concentration 1000.0 nM
Muscle, skeletal receptor tyrosine-protein kinase (Homo sapiens), sequence (O15146 whole entry): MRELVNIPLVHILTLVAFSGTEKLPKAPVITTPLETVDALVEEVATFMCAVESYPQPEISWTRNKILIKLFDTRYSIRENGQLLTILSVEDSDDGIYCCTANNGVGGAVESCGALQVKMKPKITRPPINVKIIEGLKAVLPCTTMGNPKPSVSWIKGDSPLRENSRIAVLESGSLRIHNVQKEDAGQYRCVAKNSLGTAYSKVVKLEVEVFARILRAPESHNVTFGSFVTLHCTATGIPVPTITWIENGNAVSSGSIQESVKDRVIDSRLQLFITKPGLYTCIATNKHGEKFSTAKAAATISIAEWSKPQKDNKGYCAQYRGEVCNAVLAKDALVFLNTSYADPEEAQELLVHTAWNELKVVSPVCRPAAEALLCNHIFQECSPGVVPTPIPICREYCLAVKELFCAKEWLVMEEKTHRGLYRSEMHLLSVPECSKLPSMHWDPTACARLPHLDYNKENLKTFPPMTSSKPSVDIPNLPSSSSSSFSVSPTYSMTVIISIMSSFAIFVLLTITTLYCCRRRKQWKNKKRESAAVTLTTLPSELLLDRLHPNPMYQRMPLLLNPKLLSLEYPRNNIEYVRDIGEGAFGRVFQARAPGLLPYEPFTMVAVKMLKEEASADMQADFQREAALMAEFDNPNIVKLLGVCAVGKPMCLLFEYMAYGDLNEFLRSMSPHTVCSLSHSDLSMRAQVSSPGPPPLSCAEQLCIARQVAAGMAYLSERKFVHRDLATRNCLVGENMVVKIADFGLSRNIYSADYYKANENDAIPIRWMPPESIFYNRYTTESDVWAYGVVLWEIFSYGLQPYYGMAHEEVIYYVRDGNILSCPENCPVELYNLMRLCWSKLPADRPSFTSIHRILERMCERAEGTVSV

[23] = molecular target: Serine/threonine-protein kinase Nek7 (Homo sapiens) (UniProt Q8TDX7); details: Compound concentration 1000.0 nM
[24] = molecular target: Mitogen-activated protein kinase 12 (Homo sapiens) (UniProt P53778); details: Compound concentration 1000.0 nM
[25] = molecular target: Cyclin-dependent kinase 17 (Homo sapiens) (UniProt Q00537); details: Compound concentration 1000.0 nM
[26] = molecular target: Phosphatidylinositol 4-phosphate 3-kinase C2 domain-containing subunit beta (Homo sapiens) (UniProt O00750); details: Compound concentration 1000.0 nM
[27] = system: Phosphatidylinositol 4,5-bisphosphate 3-kinase catalytic subunit alpha isoform (Homo sapiens), P42336 [E542K]; details: Compound concentration 1000.0 nM
[28] = molecular target: Phosphatidylinositol 4-phosphate 5-kinase type-1 gamma (Homo sapiens) (UniProt O60331); details: Compound concentration 1000.0 nM
[29] = molecular target: Serine/threonine-protein kinase PLK2 (Homo sapiens) (UniProt Q9NYY3); details: Compound concentration 1000.0 nM
[30] = molecular target: Protein kinase C delta type (Homo sapiens) (UniProt Q05655); details: Compound concentration 1000.0 nM
[31] = molecular target: Protein kinase C epsilon type (Homo sapiens) (UniProt Q02156); details: Compound concentration 1000.0 nM
[32] = molecular target: cGMP-dependent protein kinase 2 (Homo sapiens) (UniProt Q13237); details: Compound concentration 1000.0 nM
[33] = molecular target: Serine/threonine-protein kinase SIK3 (Homo sapiens) (UniProt Q9Y2K2); details: Compound concentration 1000.0 nM
Serine/threonine-protein kinase SIK3 (Homo sapiens), sequence (Q9Y2K2 whole entry, looked up): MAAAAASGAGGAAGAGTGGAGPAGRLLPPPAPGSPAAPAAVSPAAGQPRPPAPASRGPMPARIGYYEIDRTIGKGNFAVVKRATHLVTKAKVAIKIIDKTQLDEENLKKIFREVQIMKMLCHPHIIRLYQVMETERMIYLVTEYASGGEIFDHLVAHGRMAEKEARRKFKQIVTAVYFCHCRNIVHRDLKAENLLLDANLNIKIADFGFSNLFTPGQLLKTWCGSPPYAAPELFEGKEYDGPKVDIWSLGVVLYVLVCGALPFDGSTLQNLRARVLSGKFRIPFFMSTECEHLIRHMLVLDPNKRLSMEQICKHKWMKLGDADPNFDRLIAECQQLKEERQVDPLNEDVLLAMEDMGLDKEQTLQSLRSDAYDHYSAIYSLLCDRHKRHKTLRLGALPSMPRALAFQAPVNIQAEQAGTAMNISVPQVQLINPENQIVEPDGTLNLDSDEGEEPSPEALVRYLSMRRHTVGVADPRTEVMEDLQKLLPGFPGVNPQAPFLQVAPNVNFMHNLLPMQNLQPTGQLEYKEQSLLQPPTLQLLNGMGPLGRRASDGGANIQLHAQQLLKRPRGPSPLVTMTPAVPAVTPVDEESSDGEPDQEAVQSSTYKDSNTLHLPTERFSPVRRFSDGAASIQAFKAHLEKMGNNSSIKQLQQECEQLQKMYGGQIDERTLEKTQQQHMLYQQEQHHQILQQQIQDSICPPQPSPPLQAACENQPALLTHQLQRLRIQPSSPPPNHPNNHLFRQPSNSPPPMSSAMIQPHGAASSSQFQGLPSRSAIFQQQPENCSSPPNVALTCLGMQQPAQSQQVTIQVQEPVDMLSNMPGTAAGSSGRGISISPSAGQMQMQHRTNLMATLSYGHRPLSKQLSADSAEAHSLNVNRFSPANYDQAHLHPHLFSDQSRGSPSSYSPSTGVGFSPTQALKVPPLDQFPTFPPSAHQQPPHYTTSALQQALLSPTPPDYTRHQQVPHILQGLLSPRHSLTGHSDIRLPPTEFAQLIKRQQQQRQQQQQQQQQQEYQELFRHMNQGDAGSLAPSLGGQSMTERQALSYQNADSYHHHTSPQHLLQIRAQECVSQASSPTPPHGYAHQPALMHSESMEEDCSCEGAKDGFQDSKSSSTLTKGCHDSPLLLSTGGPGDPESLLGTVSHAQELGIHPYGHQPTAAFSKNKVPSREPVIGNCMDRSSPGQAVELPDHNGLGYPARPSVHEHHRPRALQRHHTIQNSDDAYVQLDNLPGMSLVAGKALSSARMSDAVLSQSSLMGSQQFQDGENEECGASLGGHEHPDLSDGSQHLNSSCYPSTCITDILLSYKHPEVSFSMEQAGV

[34] = molecular target: RAF proto-oncogene serine/threonine-protein kinase (Homo sapiens) (UniProt P04049); details: Compound concentration 1000.0 nM
[35] = molecular target: Serine/threonine-protein kinase RIO1 (Homo sapiens) (UniProt Q9BRS2); details: Compound concentration 1000.0 nM
[36] = molecular target: Tyrosine-protein kinase Srms (Homo sapiens) (UniProt Q9H3Y6); details: Compound concentration 1000.0 nM
[37] = molecular target: Serine/threonine-protein kinase TAO2 (Homo sapiens) (UniProt Q9UL54); details: Compound concentration 1000.0 nM
[38] = molecular target: Serine/threonine-protein kinase TAO3 (Homo sapiens) (UniProt Q9H2K8); details: Compound concentration 1000.0 nM
[39] = molecular target: Transient receptor potential cation channel subfamily M member 6 (Homo sapiens) (UniProt Q9BX84); details: Compound concentration 1000.0 nM
[40] = molecular target: Non-receptor tyrosine-protein kinase TYK2 (Homo sapiens) (UniProt P29597); details: Compound concentration 1000.0 nM
Non-receptor tyrosine-protein kinase TYK2 (Homo sapiens), sequence (P29597 whole entry): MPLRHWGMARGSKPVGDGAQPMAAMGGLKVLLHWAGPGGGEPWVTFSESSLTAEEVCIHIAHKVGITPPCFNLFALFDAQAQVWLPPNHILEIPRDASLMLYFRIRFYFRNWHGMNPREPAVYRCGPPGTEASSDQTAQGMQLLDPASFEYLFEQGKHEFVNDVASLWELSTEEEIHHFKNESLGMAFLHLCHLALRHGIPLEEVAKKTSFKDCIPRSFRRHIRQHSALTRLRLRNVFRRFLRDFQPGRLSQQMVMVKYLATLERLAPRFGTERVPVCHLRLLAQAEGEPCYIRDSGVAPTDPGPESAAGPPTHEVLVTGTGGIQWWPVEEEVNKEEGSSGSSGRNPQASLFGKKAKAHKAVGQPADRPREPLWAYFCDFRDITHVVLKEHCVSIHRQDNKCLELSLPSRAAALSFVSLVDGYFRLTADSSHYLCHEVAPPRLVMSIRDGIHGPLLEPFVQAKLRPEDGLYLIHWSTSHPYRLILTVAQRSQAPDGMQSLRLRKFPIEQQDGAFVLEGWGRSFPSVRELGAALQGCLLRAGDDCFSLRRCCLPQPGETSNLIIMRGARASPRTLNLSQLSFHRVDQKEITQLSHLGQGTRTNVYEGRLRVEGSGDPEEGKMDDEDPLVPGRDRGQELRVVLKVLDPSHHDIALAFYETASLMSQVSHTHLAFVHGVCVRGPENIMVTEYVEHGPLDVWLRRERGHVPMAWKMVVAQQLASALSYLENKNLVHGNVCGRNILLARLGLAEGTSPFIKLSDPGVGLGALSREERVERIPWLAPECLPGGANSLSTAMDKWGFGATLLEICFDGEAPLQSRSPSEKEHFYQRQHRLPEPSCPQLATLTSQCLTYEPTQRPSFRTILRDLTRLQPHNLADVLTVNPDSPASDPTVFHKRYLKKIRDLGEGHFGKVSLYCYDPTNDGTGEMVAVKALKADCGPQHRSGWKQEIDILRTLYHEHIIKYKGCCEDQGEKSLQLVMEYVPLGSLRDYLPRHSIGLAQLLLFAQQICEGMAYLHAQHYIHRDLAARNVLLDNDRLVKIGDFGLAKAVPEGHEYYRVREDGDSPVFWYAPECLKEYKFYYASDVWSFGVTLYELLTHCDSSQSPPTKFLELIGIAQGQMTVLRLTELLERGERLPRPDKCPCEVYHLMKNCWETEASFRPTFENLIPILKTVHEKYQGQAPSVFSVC

[41] = molecular target: 5-hydroxytryptamine receptor 1B (Homo sapiens) (UniProt P28222); details: Compound concentration 10.0 uM
[42] = molecular target: 5-hydroxytryptamine receptor 7 (Homo sapiens) (UniProt P34969); details: Compound concentration 10.0 uM
[43] = molecular target: GABA-A receptor; anion channel (Rattus norvegicus) (UniProt O09028+P15431+P18506+P18508+P19969+P20236+P23574+P23576+P28471+P28473+P30191+P62813+P63079+P63138+Q91ZM7+Q9ES14); details: Compound concentration 10.0 uM
[44] = molecular target: Histamine H1 receptor (Homo sapiens) (UniProt P35367); details: Compound concentration 10.0 uM
Histamine H1 receptor (Homo sapiens), sequence (P35367 whole entry): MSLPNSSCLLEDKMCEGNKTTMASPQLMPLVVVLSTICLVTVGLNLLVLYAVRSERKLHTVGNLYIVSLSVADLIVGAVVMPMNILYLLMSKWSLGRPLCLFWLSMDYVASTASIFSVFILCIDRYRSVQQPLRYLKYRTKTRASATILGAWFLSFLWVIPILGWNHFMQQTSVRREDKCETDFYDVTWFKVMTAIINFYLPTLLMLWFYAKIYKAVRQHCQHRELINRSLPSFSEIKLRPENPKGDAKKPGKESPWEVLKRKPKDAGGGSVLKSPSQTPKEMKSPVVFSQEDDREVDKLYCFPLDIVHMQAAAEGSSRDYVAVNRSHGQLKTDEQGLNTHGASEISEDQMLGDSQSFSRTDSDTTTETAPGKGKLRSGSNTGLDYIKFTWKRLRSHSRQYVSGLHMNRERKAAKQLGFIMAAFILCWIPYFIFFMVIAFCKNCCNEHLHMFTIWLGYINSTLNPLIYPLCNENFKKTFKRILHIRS

Tyrosine-protein kinase ABL1 (Homo sapiens), P00519 [F317I], sequence (P00519 whole entry F317I): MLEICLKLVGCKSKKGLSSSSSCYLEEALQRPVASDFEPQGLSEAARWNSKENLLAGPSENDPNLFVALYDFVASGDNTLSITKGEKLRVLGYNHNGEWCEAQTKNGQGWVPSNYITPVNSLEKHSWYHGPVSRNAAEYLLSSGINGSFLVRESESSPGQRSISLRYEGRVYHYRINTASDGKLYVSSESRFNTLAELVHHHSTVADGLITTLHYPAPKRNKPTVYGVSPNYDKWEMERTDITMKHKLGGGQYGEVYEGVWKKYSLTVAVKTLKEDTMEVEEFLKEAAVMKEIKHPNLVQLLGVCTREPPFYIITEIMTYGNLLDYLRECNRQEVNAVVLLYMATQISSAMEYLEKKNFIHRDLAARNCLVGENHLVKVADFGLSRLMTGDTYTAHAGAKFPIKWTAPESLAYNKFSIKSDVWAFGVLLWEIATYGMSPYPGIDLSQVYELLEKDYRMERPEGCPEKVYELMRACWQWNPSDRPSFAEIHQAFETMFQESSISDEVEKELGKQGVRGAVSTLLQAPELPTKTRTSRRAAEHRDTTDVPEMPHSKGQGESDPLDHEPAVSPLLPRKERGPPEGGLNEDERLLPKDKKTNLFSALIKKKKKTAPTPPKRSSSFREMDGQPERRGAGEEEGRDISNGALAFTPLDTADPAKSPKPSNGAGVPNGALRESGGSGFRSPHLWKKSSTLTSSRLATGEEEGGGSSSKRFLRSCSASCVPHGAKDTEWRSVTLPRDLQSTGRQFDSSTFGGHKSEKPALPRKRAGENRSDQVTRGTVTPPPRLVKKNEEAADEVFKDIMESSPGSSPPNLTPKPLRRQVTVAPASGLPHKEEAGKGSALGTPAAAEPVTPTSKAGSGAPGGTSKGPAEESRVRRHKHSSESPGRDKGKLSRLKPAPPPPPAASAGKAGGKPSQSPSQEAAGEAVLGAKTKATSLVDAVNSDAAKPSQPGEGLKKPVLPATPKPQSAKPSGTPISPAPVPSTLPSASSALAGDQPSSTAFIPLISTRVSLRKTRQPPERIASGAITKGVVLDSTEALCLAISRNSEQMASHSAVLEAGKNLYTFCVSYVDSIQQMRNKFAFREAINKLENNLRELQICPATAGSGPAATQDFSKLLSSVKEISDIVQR

CS(=O)(=O)c1cc(C2(NC(=O)c3cncc4c3cnn4-c3ccc(F)cc3)CC2)ccn1 [BI 639667]
inactive: residual activity [1] 98% | residual activity [2] 79% | residual activity [3] 100% | residual activity [4] 100% | residual activity [5] 89% | residual activity [6] 76% | residual activity [7] 96% | residual activity [8] 98% | residual activity [9] 100% | residual activity [10] 83% | residual activity [11] 100% | residual activity [12] 100% | residual activity [13] 75% | residual activity [14] 95% | residual activity [15] 70% | residual activity [16] 100% | residual activity [17] 100% | residual activity [18] 88% | residual activity [19] 87% | residual activity [20] 100% | residual activity [21] 100% | residual activity [22] 68% | residual activity [23] 100% | residual activity [24] 100% | residual activity [25] 79% | residual activity [26] 84% | residual activity [27] 80% | residual activity [28] 95% | residual activity [29] 70% | residual activity [30] 100% | residual activity [31] 100% | residual activity [32] 89% | residual activity [33] 81% | residual activity [34] 100% | residual activity [35] 80% | residual activity [36] 86% | residual activity [37] 97% | residual activity [38] 97% | residual activity [39] 91% | residual activity [40] 73% | inhibition [41] 13.5% | inhibition [42] 10.5% | inhibition [43] 6.63% | inhibition [44] 11.2%

CS(=O)(=O)NCC[C@H](NC(=O)c1cncc2c1cnn2-c1ccc(F)cc1)c1ccnc(S(C)(=O)=O)c1 [BI 9307]
inactive: residual activity [1] 85% | residual activity [2] 94% | residual activity [3] 92% | residual activity [4] 95% | residual activity [5] 92% | residual activity [6] 100% | residual activity [7] 99% | residual activity [8] 93% | residual activity [9] 100% | residual activity [10] 100% | residual activity [11] 75% | residual activity [12] 100% | residual activity [13] 100% | residual activity [14] 87% | residual activity [15] 100% | residual activity [16] 100% | residual activity [17] 100% | residual activity [18] 100% | residual activity [19] 100% | residual activity [20] 78% | residual activity [21] 99% | residual activity [22] 100% | residual activity [23] 90% | residual activity [24] 100% | residual activity [25] 100% | residual activity [26] 78% | residual activity [27] 66% | residual activity [28] 78% | residual activity [29] 100% | residual activity [30] 76% | residual activity [31] 100% | residual activity [32] 87% | residual activity [33] 98% | residual activity [34] 76% | residual activity [35] 85% | residual activity [36] 83% | residual activity [37] 85% | residual activity [38] 80% | residual activity [39] 100% | residual activity [40] 100% | inhibition [41] 47.7% | inhibition [42] 4.81% | inhibition [43] 23.5% | inhibition [44] 12.5%
